From PMC9104950, “Stereoselective Covalent Adduct Formation of Acyl Glucuronide Metabolite of Nonsteroidal Anti-Inflammatory Drugs with UDP-Glucuronosyltransferase” (International Journal of Molecular Sciences, 2022)

Legend:
UGT2B4 = target: T1, UGT2B4 (Homo sapiens, UniProt P06133); assay: Covalent adduct formation of NSAIDs-AG with UGT2B4; assay type: binding; settings: 180 μM, UGT 3.4 μM, 6 h
T1 construct: purchased Corning, Inc
T1 sequence (P06133 24-528): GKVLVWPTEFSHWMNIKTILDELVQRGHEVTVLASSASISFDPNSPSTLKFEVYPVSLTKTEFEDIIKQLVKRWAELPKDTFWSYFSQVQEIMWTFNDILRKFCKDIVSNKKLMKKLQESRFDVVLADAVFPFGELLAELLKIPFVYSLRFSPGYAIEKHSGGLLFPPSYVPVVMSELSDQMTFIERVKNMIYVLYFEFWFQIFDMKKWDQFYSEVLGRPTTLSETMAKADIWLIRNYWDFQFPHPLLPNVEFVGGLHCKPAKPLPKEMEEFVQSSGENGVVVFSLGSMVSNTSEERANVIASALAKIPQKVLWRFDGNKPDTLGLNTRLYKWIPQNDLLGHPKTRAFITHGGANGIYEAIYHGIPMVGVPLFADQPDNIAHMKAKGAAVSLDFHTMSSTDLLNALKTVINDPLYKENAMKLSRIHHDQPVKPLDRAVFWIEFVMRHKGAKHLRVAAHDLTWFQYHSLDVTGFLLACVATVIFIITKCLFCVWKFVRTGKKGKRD
Procedure: (§1) The concentrations of UGT were set at 3.4 μM by the preliminary experiments on the linearity of covalent adduct formation. The covalent adduct formation of NSAIDs-AG with organelle proteins and UGT was determined according to previous reports on NSAIDs-AG with albumin with some modifications. After a deproteinization of the reaction mixture, methanol/diethyl ether (3:1) was added to the pellet. […] The concentrations of the parent NSAIDs were measured using liquid chromatography-tandem mass spectrometry (LC-MS/MS). Aliquots of 10 μL were injected into the LC-MS/MS system. The LC-MS/MS equipment consisted of an LC system (UltiMate 3000 series, Thermo Fisher Scientific, Inc.) and TSQ Endura Triple Quadrupole Mass Spectrometer with electrospray ionization (Thermo Fisher Scientific, Inc.). Finnigan Xcalibur software (Thermo Fisher Scientific, Inc.) was used for data recording and analysis. Analysis was further performed using a reversed-phase column (COSMOSIL 5C18-MSII, 2.0 mm × 150 mm, 5 μm; Nacalai Tesque, Inc.). The column temperature was set to 40 °C, and the autosampler was maintained at 10 °C. The mobile phase (A; 30% methanol in 8.5 mM ammonium formate and 0.0075% formic acid, and B; 90% methanol in 8.5 mM ammonium formate and 0.0075% formic acid) was pumped at a flow rate of 0.2 mL/min. The initial mobile phase composition was maintained at 30% mobile phase B for 1 min, changed linearly to 90% mobile phase B from 1 to 8 min, maintained for 1 min, returned to 30% mobile phase B from 9 to 10 min, and maintained for 1 min for chromatographic column equilibrium. The MS scan was operated in positive ionization mode for DIC, MEF, ZOM, KET, and NAP, or negative ionization mode, for FLU. The conditions for electrospray ionization were set at 3500 V spray voltage for positive ionization mode and 2500 V spray voltage for negative ionization mode at 400 °C capillary temperature, and 300 °C vaporizer temperature with 40 arbitrary units of nitrogen sheath gas and 10 arbitrary units of auxiliary gas. The MS scan was operated in the positive or negative ionization mode. The selected reaction monitoring (SRM) mode was used, with argon as the collision gas at 1.5 mTorr. The mass resolution was set at 0.7 full-width at half-height (unit resolution). SRM transitions (precursor and product ions) were mass to charge ratios of (m/z) 296 > 214 for DIC (positive ionization mode), 294 > 250 for DIC (negative ionization mode), 242 > 224 for MEF, 292 > 139 for ZOM, 243 > 198 for R- and S-FLU, 255 > 209 for R- and S-KET, 231 > 185 for R- and S-NAP, and 302 > 220 for DIC-d4. The collision energies were 15 V for DIC (negative ionization mode), ZOM, MEF, FLU, KET, and NAP; 35 V for DIC (positive ionization mode); and DIC-d4. The concentrations of NSAIDs were determined from a single-point calibration in every assay for NSAIDs after confirmation of linearity between area and concentrations of NSAIDs.

UGT2B7 = target: T2, UGT2B7 (Homo sapiens, UniProt P16662); assay: Covalent adduct formation of NSAIDs-AG with UGT2B7; assay type: binding; settings: 180 μM, UGT 3.4 μM, 6 h; for covalent adduct formation with UGT2B7 compared with the other diastereomer: R vs S diastereomer
T2 construct: purchased Corning, Inc
T2 sequence (P16662 24-529): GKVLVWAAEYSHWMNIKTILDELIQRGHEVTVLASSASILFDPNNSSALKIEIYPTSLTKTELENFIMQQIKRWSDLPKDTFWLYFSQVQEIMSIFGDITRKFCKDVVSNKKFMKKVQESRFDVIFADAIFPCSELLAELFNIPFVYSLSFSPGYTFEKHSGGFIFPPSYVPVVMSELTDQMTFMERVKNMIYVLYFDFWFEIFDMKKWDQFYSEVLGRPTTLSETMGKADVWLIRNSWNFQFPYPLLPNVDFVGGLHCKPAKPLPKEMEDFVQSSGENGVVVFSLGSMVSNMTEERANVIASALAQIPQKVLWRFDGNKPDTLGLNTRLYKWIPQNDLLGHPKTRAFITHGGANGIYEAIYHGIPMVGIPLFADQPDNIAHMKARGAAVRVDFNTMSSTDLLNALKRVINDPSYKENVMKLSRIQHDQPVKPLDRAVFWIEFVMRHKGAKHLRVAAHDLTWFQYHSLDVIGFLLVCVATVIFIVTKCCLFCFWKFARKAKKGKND
Procedure: as §1

UGT1A1 = target: T3, UGT1A1 (Homo sapiens, UniProt P22309); assay: Covalent adduct formation of NSAIDs-AG with UGT1A1; assay type: binding; settings: R vs S diastereomer; 180 μM, UGT 3.4 μM, 6 h
T3 construct: purchased Corning, Inc
T3 sequence (P22309 26-533): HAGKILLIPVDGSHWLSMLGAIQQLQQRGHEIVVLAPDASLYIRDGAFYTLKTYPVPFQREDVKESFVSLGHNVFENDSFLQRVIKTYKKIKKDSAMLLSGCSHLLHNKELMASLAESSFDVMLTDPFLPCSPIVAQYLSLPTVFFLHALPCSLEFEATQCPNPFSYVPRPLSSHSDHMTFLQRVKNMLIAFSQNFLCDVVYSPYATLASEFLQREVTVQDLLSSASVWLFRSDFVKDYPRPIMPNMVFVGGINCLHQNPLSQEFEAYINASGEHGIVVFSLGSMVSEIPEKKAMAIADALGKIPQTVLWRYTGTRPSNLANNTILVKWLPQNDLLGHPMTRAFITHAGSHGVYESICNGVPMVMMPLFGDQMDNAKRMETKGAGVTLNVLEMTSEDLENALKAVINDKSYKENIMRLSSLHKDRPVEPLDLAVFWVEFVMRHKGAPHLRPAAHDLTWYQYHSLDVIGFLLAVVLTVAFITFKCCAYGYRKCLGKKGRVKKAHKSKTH
Procedure: as §1, with “The conditions for electrospray ionization were set at 3500 V spray voltage for positive ionization mode and 2500 V spray voltage for negative ionization mode at 400 °C capillary temperature, and 300 °C vaporizer temperature with 40 arbitrary units of nitrogen sheath gas and 10 arbitrary units of auxiliary gas. The MS scan was operated in the positive or negative ionization mode. The selected reaction monitoring (SRM) mode was used, with argon as the collision gas at 1.5 mTorr. The mass resolution was set at 0.7 full-width at half-height (unit resolution). SRM transitions (precursor and product ions) were mass to charge ratios of (m/z) 296 > 214 for DIC (positive ionization mode), 294 > 250 for DIC (negative ionization mode), 242 > 224 for MEF, 292 > 139 for ZOM, 243 > 198 for R- and S-FLU, 255 > 209 for R- and S-KET, 231 > 185 for R- and S-NAP, and 302 > 220 for DIC-d4. The collision energies were 15 V for DIC (negative ionization mode), ZOM, MEF, FLU, KET, and NAP; 35 V for DIC (positive ionization mode); and DIC-d4.” left out

UGT1A9 = target: T4, UGT1A9 (Homo sapiens, UniProt O60656); assay: Covalent adduct formation of NSAIDs-AG with UGT1A9; assay type: binding; settings: R vs S diastereomer; 180 μM, UGT 3.4 μM, 6 h
T4 construct: purchased Corning, Inc
T4 sequence (O60656 26-530): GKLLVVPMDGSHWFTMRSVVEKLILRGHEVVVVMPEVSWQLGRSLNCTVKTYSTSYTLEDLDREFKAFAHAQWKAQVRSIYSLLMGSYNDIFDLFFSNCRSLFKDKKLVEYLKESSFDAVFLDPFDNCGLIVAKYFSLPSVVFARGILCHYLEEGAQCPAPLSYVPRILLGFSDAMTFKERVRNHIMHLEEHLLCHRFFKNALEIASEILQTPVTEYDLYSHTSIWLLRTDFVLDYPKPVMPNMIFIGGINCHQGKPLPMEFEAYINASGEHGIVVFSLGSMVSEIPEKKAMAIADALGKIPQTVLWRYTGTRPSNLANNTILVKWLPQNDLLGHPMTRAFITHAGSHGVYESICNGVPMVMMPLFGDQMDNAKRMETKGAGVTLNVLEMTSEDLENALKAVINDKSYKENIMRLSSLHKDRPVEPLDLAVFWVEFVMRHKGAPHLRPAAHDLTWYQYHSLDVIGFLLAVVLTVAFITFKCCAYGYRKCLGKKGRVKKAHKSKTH
Procedure: as §1, with “The conditions for electrospray ionization were set at 3500 V spray voltage for positive ionization mode and 2500 V spray voltage for negative ionization mode at 400 °C capillary temperature, and 300 °C vaporizer temperature with 40 arbitrary units of nitrogen sheath gas and 10 arbitrary units of auxiliary gas. The MS scan was operated in the positive or negative ionization mode. The selected reaction monitoring (SRM) mode was used, with argon as the collision gas at 1.5 mTorr. The mass resolution was set at 0.7 full-width at half-height (unit resolution). SRM transitions (precursor and product ions) were mass to charge ratios of (m/z) 296 > 214 for DIC (positive ionization mode), 294 > 250 for DIC (negative ionization mode), 242 > 224 for MEF, 292 > 139 for ZOM, 243 > 198 for R- and S-FLU, 255 > 209 for R- and S-KET, 231 > 185 for R- and S-NAP, and 302 > 220 for DIC-d4. The collision energies were 15 V for DIC (negative ionization mode), ZOM, MEF, FLU, KET, and NAP; 35 V for DIC (positive ionization mode); and DIC-d4.” left out

[1] = set-up: method as in PMID 20606003, PMID 1673415; settings: phosphate buffers (pH 7.4); cited from earlier work

| SMILES | amounts of covalent adducts with UGT2B (UGT2B4) relative to UGT1A isoforms (UGT2B4) | amounts of covalent adducts with UGT2B (UGT2B7) relative to UGT1A isoforms (UGT2B7) | covalent adduct formation with UGT1A1 compared with the other diastereomer (UGT1A1) | covalent adduct formation with UGT1A9 compared with the other diastereomer (UGT1A9) | covalent adduct formation with UGT2B7 compared with the other diastereomer (UGT2B7) | amounts of covalent adducts with UGT2B7 compared with UGT1A9 (UGT2B7) | covalent adduct formation with UGT2B7 (UGT2B7; 37 °C) | half-lives in buffers [1] |
| --- | --- | --- | --- | --- | --- | --- | --- | --- |
| CC(C(=O)OC1OC(C(=O)O)C(O)C(O)C1O)c1ccc(-c2ccccc2)c(F)c1 (stereo not shown) [R-FLU-AG] | relatively higher amounts of covalent adducts | relatively higher amounts of covalent adducts |  |  |  |  |  |  |
| COc1ccc2cc(C(C)C(=O)OC3OC(C(=O)O)C(O)C(O)C3O)ccc2c1 (stereo not shown) [R-NAP-AG] | relatively higher amounts of covalent adducts | relatively higher amounts of covalent adducts | significantly more covalent adducts | significantly more covalent adducts | significantly more covalent adducts |  |  |  |
| CC(C(=O)OC1OC(C(=O)O)C(O)C(O)C1O)c1ccc(-c2ccccc2)c(F)c1 (stereo not shown) [S-FLU-AG] |  |  | significantly higher | significantly higher | significantly higher |  |  |  |
| Cc1cc(CC(=O)O[C@@H]2O[C@H](C(=O)O)[C@@H](O)[C@H](O)[C@H]2O)n(C)c1C(=O)c1ccc(Cl)cc1 [ZOM-AG] |  |  |  |  |  | significantly higher amounts of covalent adducts | higher amounts of covalent adducts | relatively short half-lives |
